Results on one compound are retold here after patent US11185516B2 (Laboratorios Silanes S.A. DE C.V., priority 2016, dated 2021).

For series [1], the system named is proIL-1β, TNFα, iNOS, IL-6, MCP-1 and IL-12. Put plainly: Inflammation marker expression in palmitate-stimulated L1 adipocytes (RT-qPCR). The series is classed as cell-based. The conditions noted are these: 10 mM, palmitate 500 μM, 24 h. As for the experimental part:
Palmitate is a saturated fatty acid that simulates an experimental obese state. It can be used as a pro-inflammatory stimulant for cytokines such as proIL-1β, TNFα, iNOS, IL-6, MCP-1 and IL-12.
Next, the relative expression of inflammation markers was analyzed by RT and qPCR using HPRT-1 as a normalizer and the untreated cell expression levels as a reference (for MCP-1 and IL-12) or those treated palmitate. After the treatments, culture media were collected and subsequently analyzed, cells were washed with PBS, and RNA was extracted (illustra RNAspin Mini, GE Healthcare) and reverse transcribed (High Capacity cDNA Reverse Transcription Kit, Life Technologies). The expression of the genes that were the object of the study was analyzed by qPCR using specific probes (TaqMan® Gene Expression Assays, Life Technologies). The relative expression (RQ), represented in the figure, was calculated by the ΔΔCt method.
(In general: In qPCR the cycle at which signal appears reflects the starting amount.)

The next series deals with C2C12 myotubes. Put plainly: Glucose concentration of C2C12 myotube cultures in M1 macrophage conditioned media. It counts as cell-based, mouse. The conditions noted are these: macrophages treated with 10 mM for 2 h, then LPS/IFNγ 16 h. As for the experimental part:
There is considerable evidence showing that inflammation and hyperglycemia are interconnected: inflammation induces hyperglycemia and reciprocally hyperglycemia induces inflammation with the molecular bases not elucidated yet. To explore the participation of GPBP, glucose intake under normoglycemic conditions with conditioned media generated by macrophages differentiated to a proinflammatory M1 phenotype was monitored.
[…]. The glucose concentration of the myotube cultures was determined at different times with Glucocard (Arkray). The controls used were the C2C12 cultured with media conditioned with no stimulated macrophages (Cells) or with M1 conditioned media (M1). The initial glucose levels (time 0) were used as a reference (100%) in each series.

The test system of the next series is C57BL/6 mice. Nature of the series: Glycemia and dietary intake in C57BL/6 mice. The series is classed as in vivo, mouse. The conditions noted are these: 1 week. The source says: The mean glycemic values at the beginning and end of the experiment are represented for each group (n=3) with their standard deviations.
The target of another series is GPBP and AKT (Homo sapiens, UniProt Q9Y5P4). The conditions noted are these: 5 mM. Here is the method: Two hundred nanograms of AS160 (Origene Technologies) was incubated either in the absence (−) or in the presence (+) of FLAG-GPBP (270 ng), AKT (Millipore) (200 ng) and SLN1 or SLN2 (5 mM) in phosphorylation solution (β-glycerophosphate 25 mM (pH 7.0), EDTA 0.5 mM, EGTA 0.5 mM, MgCl2 8 mM, MnCl2 5 mM, DTT 1 mM) without ATP for 10 min at RT, after which [γ-^32P] ATP (Perkin Elmer) (0.132 μM) and ATP (Sigma) (100 μM) were added. Reaction cocktails (25 μl) were incubated at 30° C. for 15 min, and stirred (350 rpm).

The test system of another series is VAPA and VAMPs. Nature of the series: Colocalization of VAPA and VAMPs (FIG. 18).
In another series the test system is GLUT4. Put plainly: GLUT4 translocation (FIG. 19A).
Series [2] deals with IRS2 knockout mice (KO IRS2). Put plainly: Body weight in IRS2 knockout mice. The conditions noted are these: 100 mg/kg/day, 8 weeks. The series is classed as in vivo, mouse. As for the experimental part:
Body weight of the mice was measured prior to the onset of treatment, at 4 weeks after treatment, and at 8 weeks after treatment. There were 8 mice in each group at the pre-treatment and 4-week treatment time points. […] Statistical differences between the experimental groups shown in FIG. 20 were assessed by Student's T test. P value of <0.05 is indicated by *.

The test system of series [3] is IRS2 knockout mice (KO IRS2). Put plainly: Serum triglycerides in IRS2 knockout mice. It counts as in vivo, mouse. The conditions noted are these: 100 mg/kg/day, 8 weeks, fasting. Here is the method:
At the 8-week treatment time point, there were 8 mice in each of the WT groups, 6 mice in the KO IRS2 untreated control group, 7 mice in the KO IRS2 SLN1 treated group, and 8 mice in the KO SLN2 treated group. Blood was collected at the time of sacrifice and used to measure TG under fasting conditions. […] Statistical differences between the experimental groups shown in FIG. 21 were assessed by Student's T test. P value of <0.05 is indicated by *.

In series [4] the test system is IRS2 knockout mice (IRS2-/-). The conditions noted are these: 100 mg/kg/day, 8 weeks. As for the experimental part:
At the 8-week treatment time point, there were 6 mice in each treatment group. Adipose tissue was collected upon sacrifice and frozen in liquid N2. Lipidomics analysis of the tissue was then performed using HPLC/MS. […] Statistical differences between the experimental groups shown in FIG. 22 were assessed by Student's T test. P value of <0.01 is indicated by **.

The nature of another series: clinical. The conditions noted are these: both, human, in vivo, oral, 1240 mg, tmax, median [minimum-maximum], 1240 mg single administration without food.

Chain of GPBP and AKT (Q9Y5P4 whole entry): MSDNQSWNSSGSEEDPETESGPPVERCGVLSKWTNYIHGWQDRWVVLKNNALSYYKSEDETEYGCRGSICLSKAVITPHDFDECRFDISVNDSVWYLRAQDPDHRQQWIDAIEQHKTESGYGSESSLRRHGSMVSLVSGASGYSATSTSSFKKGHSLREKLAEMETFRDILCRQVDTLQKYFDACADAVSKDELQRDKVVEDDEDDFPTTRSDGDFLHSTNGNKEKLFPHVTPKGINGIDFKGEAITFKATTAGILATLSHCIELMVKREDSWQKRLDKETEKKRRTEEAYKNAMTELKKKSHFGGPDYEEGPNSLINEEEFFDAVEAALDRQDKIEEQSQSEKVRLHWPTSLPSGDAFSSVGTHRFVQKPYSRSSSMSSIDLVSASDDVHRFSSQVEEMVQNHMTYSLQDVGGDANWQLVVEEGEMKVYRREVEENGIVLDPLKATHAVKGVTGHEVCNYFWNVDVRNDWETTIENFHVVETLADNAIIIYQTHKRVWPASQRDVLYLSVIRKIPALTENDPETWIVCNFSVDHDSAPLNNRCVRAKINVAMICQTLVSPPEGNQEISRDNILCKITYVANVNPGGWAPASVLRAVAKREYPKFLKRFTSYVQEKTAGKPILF

What is called Tmax is the time at which the peak concentration occurs. Consider `CN(C)C(=N)NC(=N)N` [Metformin glycinate, N,N-dimethylimidodicarbonimidic diamide glycinate], for which, in [1], the “anti-inflammatory effectiveness, comparison of the two salts” value was “significantly more effective than metformin hydrochloride” and the “inflammatory response of palmitate-stimulated adipocytes” value is “attenuated the inflammatory response”. In the series with C2C12 myotubes, the “glucose levels of myotube cultures (hyperglycemic levels)” value is “maintained values at normoglycemic levels”. Besides, the “glycemia, end vs beginning” value with C57BL/6 mice (100 mg/kg/day mixed with solid food, n=3) is “significantly reduced glycemia”. Further, in the series on C57BL/6 mice (100 mg/kg/day), the “extent of glycemia reduction compared to metformin hydrochloride” value is “to a greater extent” and the “food intake compared to untreated mice” value is given as “food intake was greater”. For the same compound, the “GPBP and AKT cross activation” value on GPBP and AKT was “counteracted GPBP and AKT cross activation”. In addition, the “colocalization of VAPA and VAMPS” value in the series on VAPA and VAMPs was “reduced colocalization”. The GLUT4 translocation result in the series on GLUT4 is “translocated GLUT4”. The “average body weight, post- vs pre-treatment” value in [2] is on record as “significantly lower after 8 weeks than before treatment”. For the same compound, the “serum triglycerides compared to untreated KO IRS2” value in [3] is “lower”. Moreover, in series [4], the “adipose tissue triglyceride 16:0 compared to control IRS2−/−” value was “significantly lower” and the “adipose tissue triglyceride 18:1n-9c compared to control IRS2−/−” value is given as “drastically reduced”. In addition, the Tmax in “clinical” came to 1.5 h.
